One test deals with KB cells. In words: EGFR driven KB cell proliferation assay, Test (b). Type of test: cell-based. The note with it: Homo sapiens, 96 h, EGF 1 ng/ml, incubation for 4 days, MTT. The protocol:
This assay measures the ability of a test compound to inhibit the proliferation of KB cells (human naso-pharangeal carcinoma obtained from the American Type Culture Collection (ATCC).
KB cells (human naso-pharangeal carcinoma obtained from the ATCC were cultured in Dulbecco's modified Eagle's medium (DMEM) containing 10% foetal calf serum, 2 mM glutamine and non-essential amino acids at 37° C. in a 7.5% CO2 air incubator. Cells were harvested from the stock flasks using Trypsin/ethylaminediaminetetraacetic acid (EDTA). Cell density was measured using a haemocytometer and viability was calculated using trypan blue solution before being seeded at a density of 1.25×10^3 cells per well of a 96 well plate in DMEM containing 2.5% charcoal stripped serum, 1 mM glutamine and non-essential amino acids at 37° C. in 7.5% CO2 and allowed to settle for 4 hours.
Following adhesion to the plate, the cells are treated with or without EGF (final concentration of 1 ng/ml) and with or without compound at a range of concentrations in dimethylsulfoxide (DMSO) (0.1% final) before incubation for 4 days. Following the incubation period, cell numbers were determined by addition of 50 μl of 3-(4,5-Dimethylthiazol-2-yl)-2,5-diphenyltetrazolium bromide (MTT) (stock 5 mg/ml) for 2 hours. MTT solution was then tipped off, the plate gently tapped dry and the cells dissolved upon the addition of 100 μl of DMSO.
Absorbance of the solubilised cells was read at 540 nm using a Molecular Devices ThermoMax microplate reader. Inhibition of proliferation was expressed as an IC50 value. This was determined by calculation of the concentration of compound that was required to give 50% inhibition of proliferation. The range of proliferation was calculated from the positive (vehicle plus EGF) and negative (vehicle minus EGF) control values.

Test [1] addresses T1, EGFR tyrosine kinase enzyme (Homo sapiens, UniProt P00533).
T1 construct: Recombinant intracellular fragments of EGFR, erbB2 and erbB4; made in house; host or cells: baculovirus/Sf21 insect cells
Briefly: Protein tyrosine kinase phosphorylation assay, Test (a). It is filed as biochemical. The note with it: ATP at Km concentration; read-out: IC50 (nM) Test (a) (inhibition of tyrosine kinase protein phosphorylation). The protocol:
This test measures the ability of a test compound to inhibit the phosphorylation of a tyrosine containing polypeptide substrate by EGFR tyrosine kinase enzyme.
Recombinant intracellular fragments of EGFR, erbB2 and erbB4 (accession numbers X00588, X03363 and L07868 respectively) were cloned and expressed in the baculovirus/Sf21 system. Lysates were prepared from these cells by treatment with ice-cold lysis buffer (20 mM N-2-hydroxyethylpiperizine-N′-2-ethanesulfonic acid (HEPES) pH7.5, 150 mM NaCl, 10% glycerol, 1% Triton X-100, 1.5 mM MgCl2, 1 mM ethylene glycol-bis(β-aminoethyl ether) N′,N′,N′,N′-tetraacetic acid (EGTA), plus protease inhibitors and then cleared by centrifugation.
Constitutive kinase activity of the recombinant protein was determined by its ability to phosphorylate a synthetic peptide (made up of a random co-polymer of Glutamic Acid, Alanine and Tyrosine in the ratio of 6:3:1). Specifically, Maxisorb™ 96-well immunoplates were coated with synthetic peptide (0.2 μg of peptide in a 100 μl phosphate buffered saline (PBS) solution and incubated at 4° C. overnight). Plates were washed in PBS-T (phosphate buffered saline with 0.5% Tween 20) then in 50 mM HEPES pH 7.4 at room temperature to remove any excess unbound synthetic peptide. EGFR, ErbB2 or ErbB4 tyrosine kinase activity was assessed by incubation in peptide coated plates for 20 minutes at 22° C. in 100 mM HEPES pH 7.4, adenosine trisphosphate (ATP) at Km concentration for the respective enzyme, 10 mM MnCl2, 0.1 mM Na3VO4, 0.2 mM DL-dithiothreitol (DTT), 0.1% Triton X-100 with test compound in DMSO (final concentration of 2.5%). Reactions were terminated by the removal of the liquid components of the assay followed by washing of the plates with PBS-T.
The immobilised phospho-peptide product of the reaction was detected by immunological methods. Firstly, plates were incubated for 90 minutes at room temperature with anti-phosphotyrosine primary antibodies that were raised in the mouse (4G10 from Upstate Biotechnology). Following extensive washing, plates were treated with Horseradish Peroxidase ([…]) conjugated sheep anti-mouse secondary antibody (NXA931 from Amersham) for 60 minutes at room temperature. After further washing, HRP activity in each well of the plate was measured colorimetrically using 22′-Azino-di-[3-ethylbenzthiazoline sulfonate (6)] diammonium salt crystals (ABTS™ from Roche) as a substrate.
Quantification of colour development and thus enzyme activity was achieved by the measurement of absorbance at 405 nm on a Molecular Devices ThermoMax microplate reader. Kinase inhibition for a given compound was expressed as an IC50 value. This was determined by calculation of the concentration of compound that was required to give 50% inhibition of phosphorylation in this assay. The range of phosphorylation was calculated from the positive (vehicle plus ATP) and negative (vehicle minus ATP) control values.

T1 sequence (P00533 669-1210 limits assumed): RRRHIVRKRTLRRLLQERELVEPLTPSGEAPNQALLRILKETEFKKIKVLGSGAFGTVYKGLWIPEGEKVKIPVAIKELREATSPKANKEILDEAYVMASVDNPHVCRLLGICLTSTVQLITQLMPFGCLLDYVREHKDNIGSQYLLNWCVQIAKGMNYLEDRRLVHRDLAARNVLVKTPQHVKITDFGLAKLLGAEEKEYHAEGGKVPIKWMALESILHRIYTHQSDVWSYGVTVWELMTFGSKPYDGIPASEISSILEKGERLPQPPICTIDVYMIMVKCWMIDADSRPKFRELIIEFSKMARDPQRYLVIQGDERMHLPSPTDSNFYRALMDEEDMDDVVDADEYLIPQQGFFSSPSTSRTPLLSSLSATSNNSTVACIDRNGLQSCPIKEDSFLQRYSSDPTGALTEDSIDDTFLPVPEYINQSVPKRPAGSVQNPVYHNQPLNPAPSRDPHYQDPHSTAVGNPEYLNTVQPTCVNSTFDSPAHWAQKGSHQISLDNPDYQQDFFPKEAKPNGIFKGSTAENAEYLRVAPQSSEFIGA

Consider `COc1cc2ncnc(Nc3cccc(Cl)c3F)c2cc1OC1CCN(C(=O)c2ccno2)CC1` [Compound 1, N-(3-chloro-2-fluorophenyl)-6-{[1-(isoxazol-5-ylcarbonyl)piperidin-4-yl]oxy}-7-methoxyquinazolin-4-amine], for which the IC50 in the test with KB cells was 17 nM; in test [1], < 1 nM.
Turning to `COc1cc2ncnc(Nc3cccc(Cl)c3F)c2cc1OC1CCN(C(=O)c2ccccn2)CC1` [Compound 10, N-(3-chloro-2-fluorophenyl)-7-methoxy-6-{[1-(pyridin-2-ylcarbonyl)piperidin-4-yl]oxy}quinazolin-4-amine], the values for the IC50 (in the test with KB cells; in test [1]) were 16 nM and 14 nM, respectively.
`COc1cc2c(Nc3cccc(Cl)c3F)ncnc2cc1OC1CCN(C(=O)Cc2cc(C)no2)CC1` [Compound 33, N-(3-chloro-2-fluorophenyl)-6-methoxy-7-({1-[(3-methylisoxazol-5-yl)acetyl]piperidin-4-yl}oxy)quinazolin-4-amine]: the concentration for half-maximal inhibition (IC50) came out at 47 nM with KB cells and 15 nM in test [1].
Regarding `COc1cc2c(Nc3cccc(Cl)c3F)ncnc2cc1OC1CCN(C(=O)c2cccnc2)CC1` [Compound 34, N-(3-chloro-2-fluorophenyl)-7-{[1-(pyridin-3-ylcarbonyl)piperidin-4-yl]oxy}-6-methoxyquinazolin-4-amine], the IC50 was determined as 87 nM in the test with KB cells and 43 nM in test [1].
For `COc1cc2ncnc(Nc3cccc(Cl)c3F)c2cc1O[C@@H]1CCCN(C(=O)Cc2cccs2)C1` [Compound 60, N-(3-chloro-2-fluorophenyl)-7-methoxy-6-{[(3R)-1-(2-thienylacetyl)piperidin-3-yl]oxy}quinazolin-4-amine] the same measures were 30 nM and < 1 nM.
In the case of `COc1cc2ncnc(Nc3cccc(Cl)c3F)c2cc1OC1CCN(C(=O)Nc2c(C)noc2C)CC1` [Compound 96, 4-({4-[(3-Chloro-2-fluorophenyl)amino]-7-methoxyquinazolin-6-yl}oxy)-N-(3,5-dimethylisoxazol-4-yl)piperidine-1-carboxamide], the IC50 was 17 nM with KB cells and < 1 nM in test [1].

Usually IC50 stands for the concentration needed to halve the response being measured.
